Measurements from PMC6792352, “Limited Chemical Structural Diversity Found to Modulate Thyroid Hormone Receptor in the Tox21 Chemical Library” (Environmental Health Perspectives, 2019).
Where a name gives a salt, the structure may show the parent alone.

Assay: in vitro
Settings: rat, gh3-tre-luc cells, AC50 (uM) modified / 1000

Compound	CC50 at 24 h [µM]
COC(=O)/C=C\C(=O)OC [Dimethyl maleate]	> 90
O=C(NN1CCCC1)NS(=O)(=O)c1ccc(Cl)cc1 [Glyclopyramide]	> 50
CCCCCCCC/C=C\CCCCCCCC(=O)OCCCC [9-Octadecenoic acid (9Z)-, butyl ester]	> 20
CCCCCCCCCCCC(=O)N(CCO)CCO [N,N-Bis(2-hydroxyethyl)dodecanamide]	42.5
O=S(=O)(O)c1ccc(Cl)cc1 [4-Chlorobenzenesulfonic acid]	> 90
O=C(Cl)c1cccc(C(=O)Cl)c1 [1,3-Benzenedicarbonyl dichloride]	> 90
CCN(CC)c1ccc(C(=O)c2ccccc2C(=O)O)c(O)c1 [2-[4-(Diethylamino)-2-hydroxybenzoyl]benzoic acid]	> 90
CSC1=N[C@@](C)(c2ccccc2)C(=O)N1Nc1ccccc1 [Fenamidone]	> 90
C[C@@H](CN1CC(=O)NC(=O)C1)N1CC(=O)NC(=O)C1 [Dexrazone]	> 50
CC1=C(/C=C/C(C)=C/C=C/C(C)=C/C(=O)Oc2c(C)c(C)c3c(c2C)CC[C@@](C)(CCC[C@H](C)CCC[C@H](C)CCCC(C)C)O3)C(C)(C)CCC1 [Tretinoin tocoferil]	> 50
Clc1cccc(C(Cl)(Cl)Cl)n1 [Nitrapyrin]	> 90
CC1=CC(=O)NS(=O)(=O)O1 [Acesulfame potassium]	> 90
CCCCOC(=O)[C@@H](C)Oc1ccc(Oc2ccc(C(F)(F)F)cn2)cc1 [Fluazifop-P-butyl]	> 90
CN1[C@@H]2CC[C@H]1CC(NC(=O)n1c(=O)[nH]c3ccccc31)C2 (stereo partly drawn) [Itasetron]	> 50
CN1CCCC(CC2c3ccccc3Sc3ccccc32)C1 (stereo not drawn) [Metixene hydrochloride]	8.17
Cc1ccccc1C(=O)O [2-Methylbenzoic acid]	> 90
NNc1nc(-c2ccc(N)cc2)cs1 [2-Hydrazino-4-(4-aminophenyl) thiazole]	74.8
COCc1cnc(C2=NC(C)(C(C)C)C(=O)N2)c(C(=O)O)c1 (stereo not drawn) [Imazamox]	> 90
CC(=O)OCC(=O)[C@@]1(O)[C@H](OC(C)=O)C[C@H]2[C@@H]3CCC4=CC(=O)C=C[C@]4(C)[C@@]3(F)[C@@H](O)C[C@@]21C [Triamcinolone diacetate]	> 50
C[Se]CC[C@H](N)C(=O)O [Selenomethionine]	> 50
CCCCCCCCCCCC[n+]1ccc2ccccc2c1 [2-Dodecylisoquinolinium tosylate]	5.61

Compound	CC50 at 24 h [µM]
O=[N+]([O-])c1cc(Cl)c(Cl)c(Cl)c1Cl [2,3,4,5-Tetrachloronitrobenzene]	89.5
Clc1cccc(SC2CCNCC2)n1 [Anpirtoline]	> 50
CC(C)(C)C(=O)CCl [1-Chloropinacolone]	> 90
C/C=C(\C)C(=O)OC/C=C(\C)CCC=C(C)C [Geranyl tiglate]	> 90
CC(C)c1ccc2ncccc2c1 [6-(1-Methylethyl)quinoline]	> 90
CCCCCCCCCCCCCCCCCCOCC(O)CO (stereo not drawn) [3-(Octadecyloxy)-1,2-propanediol]	> 50
CCCCCCCC[N+](C)(CCCCCCCC)CCCCCCCC [Methyltrioctylammonium trifluoromethanesulfonate]	4.19
CC1(C)C(C=C(Cl)Cl)[C@@H]1C(=O)O[C@@H](C#N)c1ccc(F)c(Oc2ccccc2)c1 (stereo partly drawn) [Cyfluthrin]	> 90
CC(C)(C)C(=O)C(Oc1ccc(Cl)cc1)n1ccnc1 (stereo not drawn) [Climbazole]	> 50
CCc1ccccc1 [Ethylbenzene]	> 90
COc1cc(Cl)ccc1Cl [2,5-Dichloroanisole]	> 90
O=C(O)C1(C(=O)Nc2ccc(Cl)cc2Cl)CC1 [Cyclanilide]	> 90
CCN(CC)CCNC(=O)COc1ccc(Cl)cc1 [Clofexamide]	> 50
CC(COc1ccccc1)NC(C)C(O)c1ccc(O)cc1 (stereo not drawn) [Isoxsuprine hydrochloride]	> 20
COC(=O)c1ccccc1C(=O)O [Monomethyl phthalate]	> 90
CCOC(=O)O[C@]1(C(=O)OCCl)CC[C@H]2[C@@H]3CCC4=CC(=O)C=C[C@]4(C)[C@H]3[C@@H](O)C[C@@]21C [Loteprednol etabonate]	> 50
CCOC(=O)Cn1c(=O)sc2cccc(Cl)c21 [Benazolin-ethyl]	> 90
Cc1ccc(C2(O)CCN(CCCC(=O)c3ccc(F)cc3)CC2)cc1 [Moperone]	30.1
C[C@H](CS)C(=O)N1CCC[C@H]1C(=O)O [Captopril]	> 50
Cc1ncc(COP(=O)(O)O)c(C=O)c1O [Pyridoxal phosphate hydrate]	> 50
O=C(/C=C/c1ccccc1)NCCO [Idrocilamide]	> 50

Compound	CC50 at 24 h [µM]
N#CCN(CC#N)CCN(CC#N)CC#N [(Ethylenedinitrilo)tetraacetonitrile]	> 90
C=C(C)C(=O)OC(C)CO (stereo not drawn) [Hydroxypropyl methacrylate]	> 90
O=C(c1ccc(O)cc1)c1ccc(O)cc1 [4,4'-Dihydoxybenzophenone]	> 90
COc1ccc(-c2ccc3cc(C(=O)O)ccc3c2)cc1[C@]12C[C@H]3C[C@H](C[C@H](C3)C1)C2 [Adapalene]	1.88
O=CCCc1ccccc1 [3-Phenylpropanal]	> 90
CN1CCOCC1 [4-Methylmorpholine]	> 90
C=C(C)C(=O)OCC(C)C [Isobutyl methacrylate]	> 90
CNC(=S)NN [N-Methylhydrazinecarbothioamide]	52.5
CCCC(=O)OC(C)(C)Cc1ccccc1 [1,1-Dimethyl-2-phenylethyl butanoate]	> 90
Nc1ccc(Cl)c(Cl)c1 [3,4-Dichloroaniline]	> 90
Cc1ccc2c(c1)C1CN(C)CCC1N2 (stereo not drawn) [Dicarbine]	> 50
CCC(O)c1ccccc1 (stereo not drawn) [1-Phenyl-1-propanol]	> 50
Cc1ccc2c(c1)C(=O)c1ccccc1C2=O [2-Methylanthraquinone]	> 90
COc1cc2c(cc1OC)[C@@H](Cc1cc(OC)c(OC)c(OC)c1)[N+](C)(CCCOC(=O)CC/C=C/CCC(=O)OCCC[N+]1(C)CCc3cc(OC)c(OC)cc3[C@H]1Cc1cc(OC)c(OC)c(OC)c1)CC2 (stereo partly drawn) [Mivacurium chloride]	> 50
CCCCCCCCCCCCCCCC(=O)O[C@@H]1CC(C)=C(/C=C/C(C)=C/C=C/C(C)=C/C=C/C=C(C)/C=C/C=C(C)/C=C/C2=C(C)C[C@@H](OC(=O)CCCCCCCCCCCCCCC)CC2(C)C)C(C)(C)C1 [Physalien]	> 50
CC(C)CC(C)O (stereo not drawn) [4-Methyl-2-pentanol]	> 90
CCCC[C@H](CC)COC(=O)/C=C/c1ccc(OC)cc1 [Octinoxate]	> 90
NC1=NCC2c3ccccc3Cc3ccccc3N12 (stereo not drawn) [Epinastine hydrochloride]	> 50
CO[C@H]1C[C@H](O[C@H]2[C@H](C)[C@@H](O[C@@H]3O[C@H](C)C[C@H](N(C)C)[C@H]3O)[C@@H](C)C[C@@]3(CO3)C(=O)[C@H](C)[C@@H](O)[C@@H](C)[C@@H](C)OC(=O)[C@@H]2C)O[C@@H](C)[C@@H]1O [Oleandomycin phosphate]	> 20
CN1CCN(c2cc3c(nn2)Oc2ccccc2N3C)CC1 [Pipofezine]	> 50
CN(C)CCc1c[nH]c2ccccc12 [N,N-Dimethyltryptamine fumarate]	> 100

Same assay, conditions: rat, gh3-tre-luc cells, AC50 (uM) modified / 1000, Tox21_110001=Tox21_111098; viability, 1 nM T3 present, 24 h

Compound	CC50 at 24 h [µM]
Oc1c(Br)cc(Br)cc1Br [2,4,6-Tribromophenol]	> 50

Same assay, conditions: rat, gh3-tre-luc cells, AC50 (uM) modified / 1000, Tox21_110001=Tox21_111800; viability, 1 nM T3 present, 24 h

Compound	CC50 at 24 h [µM]
CCOC(=O)/C=C(C)/C=C/C[C@@H](C)CCCC(C)C [(7S)-Hydroprene]	> 50

Same assay, conditions: rat, gh3-tre-luc cells, AC50 (uM) modified / 1000, Tox21_110001=Tox21_112890; viability, 1 nM T3 present, 24 h

Compound	CC50 at 24 h [µM]
CN(C)CCc1c[nH]c2ccc(O)cc12 [Bufotenine]	> 90

Same assay, conditions: rat, gh3-tre-luc cells, AC50 (uM) modified / 1000, Tox21_110001=Tox21_113116; viability, 1 nM T3 present, 24 h

Compound	CC50 at 24 h [µM]
C[C@]12CC[C@H]3[C@@H](CCC4=CC(=O)CC[C@@]43C)[C@@H]1CC[C@@H]2OC(=O)CCc1ccccc1 [Testosterone 17-phenylpropionate]	> 90

Same assay, conditions: rat, gh3-tre-luc cells, AC50 (uM) modified / 1000, Tox21_110001=Tox21_113138; viability, 1 nM T3 present, 24 h

Compound	CC50 at 24 h [µM]
Cc1ccc2c(c1)[C@]13CCCC[C@@H]1[C@H](C2)N(C)CC3 [Dimemorfan phosphate]	> 50

Same assay, conditions: rat, gh3-tre-luc cells, AC50 (uM) modified / 1000, Tox21_110001=Tox21_113529; viability, 1 nM T3 present, 24 h

Compound	CC50 at 24 h [µM]
CC(N)Cc1ccc2c(c1)OCO2 (stereo not drawn) [Tenamfetamine hydrochloride]	> 50

Same assay, conditions: rat, gh3-tre-luc cells, AC50 (uM) modified / 1000, Tox21_110001=Tox21_201273; viability, 1 nM T3 present, 24 h

Compound	CC50 at 24 h [µM]
Oc1c(Br)cc(Br)cc1Br [2,4,6-Tribromophenol]	> 90

Same assay, conditions: rat, gh3-tre-luc cells, AC50 (uM) modified / 1000, Tox21_110001=Tox21_202246; viability, 1 nM T3 present, 24 h

Compound	CC50 at 24 h [µM]
CNC(=O)CSP(=S)(OC)OC [Dimethoate]	> 90

Same assay, conditions: rat, gh3-tre-luc cells, AC50 (uM) modified / 1000, Tox21_110001=Tox21_301066; viability, 1 nM T3 present, 24 h

Compound	CC50 at 24 h [µM]
CCOC(=O)/C=C(C)/C=C/C[C@@H](C)CCCC(C)C [(7S)-Hydroprene]	87.1

Same assay, conditions: rat, gh3-tre-luc cells, AC50 (uM) modified / 1000, Tox21_110001=Tox21_301429; viability, 1 nM T3 present, 24 h

Compound	CC50 at 24 h [µM]
ClC1=C(Cl)[C@]2(Cl)[C@H]3[C@H]([C@H]4C=C[C@@H]3C4)[C@@]1(Cl)C2(Cl)Cl [Isodrin]	66.4

Same assay, conditions: rat, gh3-tre-luc cells, AC50 (uM) modified / 1000, Tox21_110001=Tox21_301758; viability, 1 nM T3 present, 24 h

Compound	CC50 at 24 h [µM]
OCCSCSCCO [2,2'-(Methanediyldisulfanediyl)diethanol]	> 90

Same assay, conditions: rat, gh3-tre-luc cells, AC50 (uM) modified / 1000, Tox21_110001=Tox21_301840; viability, 1 nM T3 present, 24 h

Compound	CC50 at 24 h [µM]
CC1C(=O)C[C@]2(C(C)C)C[C@H]12 (single isomer, unassigned; (-)) [(-)-alpha,beta-Thujone]	> 80
